Results published in patent publication US20100009906A1, “Anticancer Treatments” (PHARMA MAR, S.A., priority 2006, published 2010).
Like-named read-outs stand apart in the source and are kept apart here.

Experiments:
[1] = Pharmacokinetics of trabectedin and docetaxel following coadministration in patients with advanced malignancies; format: in vivo, human; details: for clearance / Vd / CL / Vss: mean (SD); for Vd: read-out: Vss
Method: FIG. 2 and FIG. 3. Pharmacokinetic parameters of trabectedin and docetaxel following coadministration in patients with advanced malignancies.
A phase I trial combining docetaxel and trabectedin was performed. The objective of this study was to determine the maximum tolerated dose (MTD) of trabectedin in combination with docetaxel (60 mg/m^2 or 75 mg/m^2) administered every 21 days. Additional objectives were to evaluate the safety profile of this combination of drugs and to evaluate the pharmacokinetics of trabectedin and docetaxel when given in combination. The maximum tolerated dose (MTD) relates to the highest dose at which less than one third of the subjects in a dose-level cohort experienced dose-limiting toxicity (DLT).
We designed a dose finding trial with a fixed docetaxel dose of 60 mg/m^2 or 75 mg/m^2 administered intravenously over one hour, followed by one of six trabectedin doses (0.4, 0.6, 0.75, 0.9, 1.1, and 1.3 mg/m^2) administered intravenously over 3 hours, with one hour of rest between the administration of docetaxel and ET-743. This treatment was repeated every 21 days. […] Restricted patients received ≦1 prior chemotherapy regimen whereas unrestricted patients had no limit. In addition, protocol amendment after dose level 2a allowed administration of primary prophylactic G-CSF.

[2] = tested on: patients with sarcoma, breast and ovarian carcinoma; details: cited from earlier work
[3] = tested on: human tumour xenografts (melanoma, ovarian and breast carcinoma); details: athymic mice; cited from earlier work
[4] = human, in vivo, intravenous, docetaxel 60 mg/m^2 coadministered with trabectedin 400 μg/m^2 (n = 6)
[5] = human, in vivo, intravenous, docetaxel 60 mg/m^2 coadministered with trabectedin 600 μg/m^2 (n = 4)
[6] = trabectedin 400 μg/m^2 (n = 6) coadministered with 60 mg/m^2 of docetaxel
[7] = trabectedin 600 μg/m^2 (n = 3) coadministered with 60 mg/m^2 of docetaxel

Structure (SMILES)	Terminal t1/2 ([1]; docetaxel 60 mg/m^2 coadministered with trabectedin 400 μg/m^2 (n = 6), median (range))	clearance [1, 4]	Vd [1, 4]	clearance [1, 5]	Vd [1, 5]	half-life ([1]; human, in vivo, intravenous, docetaxel 60 mg/m^2 coadministered with trabectedin 600 μg/m^2 (n = 4), median (range), read-out: Terminal t1/2 (converted))	Impact of concomitant administration of trabectedin on the pharmacokinetics of docetaxel ([1]; patients with advanced malignancies)	Responses in patients [2]	Anticancer activity against human tumour xenografts [3]	CL [1, 6]	Vss [1, 6]	Terminal t1/2 ([1]; trabectedin 400 μg/m^2 (n = 6) coadministered with 60 mg/m^2 of docetaxel, median (range))	CL [1, 7]	Vss [1, 7]	Terminal t1/2 ([1]; trabectedin 600 μg/m^2 (n = 3) coadministered with 60 mg/m^2 of docetaxel, median (range))
CC(=O)O[C@@]12CO[C@@H]1C[C@H](O)[C@@]1(C)C(=O)[C@H](O)C3=C(C)[C@@H](OC(=O)[C@H](O)[C@@H](NC(=O)OC(C)(C)C)c4ccccc4)C[C@@](O)([C@@H](OC(=O)c4ccccc4)[C@H]21)C3(C)C [Docetaxel, (2R,3S)-N-carboxy-3-phenylisoserine, N-tert-butyl ester, 13-ester with 5β-20-epoxy-1,2α,4,7β,10β, 13α-hexahydroxytax-11-en-9-one 4-acetate 2-benzoate, trihydrate]	19.9 (6.7-23) h	815 mL/min	405 L	797 mL/min	900 L	38.2 h	not adversely impacted								
COc1cc2c(cc1O)CCN[C@]21CS[C@@H]2c3c(OC(C)=O)c(C)c4c(c3[C@H](COC1=O)N1[C@@H]2[C@H]2c3c(cc(C)c(OC)c3O)C[C@@H]([C@@H]1O)N2C)OCO4 [Trabectedin, Ecteinascidin 743]								Promising ET-743 responses	potent anticancer activity	127 (61) L/h	1179 (1402) L	11.4 (3.3-100) h	101 (46) L/h	2754 (1946) L	37.5 (11.7-98.8) h
